Reference: US11559565B2, “Methods for treating inflammatory disorders and traumatic brain injury using stabilized non-hematopoietic EPO short peptides” (United States Government as Represented By The Department …, priority 2005, dated 2023)
No end group written: not given here.

How the values were obtained:
[1] = design: species or system SJL/J mice; conditions: mouse, in vivo
Method: An EAE model was established in strain SJL/J mice that is characterized by a relapsing-remitting clinical course. Briefly, mice were immunized subcutaneously at the tail base with 100 μl (200 μg) myelin oligodendrocyte glycoprotein (MOG) peptide dissolved in distilled water and emulsified with an equal volume of complete Freund's adjuvant supplemented with 4 mg/ml Mycobacterium tuberculosis H37Ra. Immediately after immunization, animals received an intravenous injection of 200 ng Bordetella pertussis toxin in 200 μl PBS. Animals were weighed daily and assessed for clinical signs of EAE by two independent observers.
Five mice per group were given either daily i.v. full length EPO (50-500 U/kg) or short EPO-peptide JM-4 peptide (250-500 μg/kg; 5-10 μg/mouse) in PBS, or PBS alone for 9 to 14 days. Blood was collected for 5 weeks to document changes in hematocrit.
Hematocrit can be determined by centrifuging heparinized blood in a capillary tube (microhematocrit tube) at 10,000 rpm for 5 minutes. This separates the blood into layers. The volume of packed red blood cells, divided by the total volume of the blood sample gives the packed cell volume (PCV). Because a tube is used, this can be calculated by measuring the lengths of the layers.

[2] = Deaths, clinical morbidity, blood chemistries and signs of toxicity in treated EAE mice; type: in vivo, SJL/J mice
Method: An EAE model was established in strain SJL/J mice that is characterized by a relapsing-remitting clinical course. […] Immediately after immunization, animals received an intravenous injection of 200 ng Bordetella pertussis toxin in 200 μl PBS. Animals were weighed daily and assessed for clinical signs of EAE by two independent observers.
[…] Blood was collected for 5 weeks to document changes in hematocrit.

[3] = system: brain injured mice (controlled cortical impact); test: Controlled cortical impact traumatic brain injury, TUNEL positive cells in the injured hemisphere; conditions: for number of dying (TUNEL positive) cells: i.p. within 30 minutes of trauma for 3 days, both 3 and 8 days post injury, p<0.001 and p<0.01
Source text: C57BL/6 mice were anesthetized with isofurane/oxygen inhalation and placed in a stereotaxic frame. The head position was established in the horizontal plane and a craniotomy (4 mm) was produced lateral to the sagittal suture between lambda and bregma, with the dura mater left intact over the cortex. A cortical contusion injury was produced utilizing a pneumatically driven 2.5 mm diameter rod tip at 3.5 m/s to a depth of 1 mm with a dwell time of 400 ms (Precision System Instruments TBI-0300 Impactor, Lexington, Ky.). After injury, a 5 mm disk constructed from dental cement was placed over the craniotomy site and adhered to the skull using cyanocrylate. During the early post-operative phase, animal temperature was maintained by placing the animals on heating pads.
Mice in the whole molecule EPO group received 5000 U/kg body weight rhEPO (Epoetin alpha, Amgen, Thousand Oaks, Calif.) intraperitoneally (i.p.). […] Mice in the PBS and sham-operated groups received 200 μl filtered sterile PBS.
Mice were sacrificed at 3 days or 8 days post-injury; brains were collected and immediately frozen on dry ice. The frozen brains were serially sectioned in coronal cuts onto 15 slides with 12 sections (16 μm thickness) per slide extending from the anterior to the posterior edge of the lesion. Sections were placed such that each individual slide contained a representative sampling of the entire lesion within the injured hemisphere.
Cell death in the mouse brains was detected using a modification of the Apoptag® (Millipore, Billerica, Mass.) in situ TUNEL method. Cryosections (16 μm thickness) were mounted and fixed in 100% acetone for 10 minutes. The slides were rehydrated and post-fixed in 2:1 ethanol:acetic acid for 11 minutes at −20° C., and then washed thoroughly in Stop/Wash Buffer (Apoptag®). Slides were incubated with equilibration buffer for 10 minutes immediately followed by working strength TdT enzyme (33 parts enzyme/77 parts buffer (Apoptag®)) for 60 minutes at 37° C. The TUNEL reaction was detected with Cy3 anti-digox (1:200; Jackson Immunoresearch, West Grove, Pa.).
Micrographs of the processed slides were acquired with a fluorescent Olympus BX60 microscope fitted with a Retiga 2000R digital camera at 10 times magnification. The total number of TUNEL positive cells in lesioned hemispheres and the total area of the brain containing the TUNEL positive cells were quantified using digital imaging software (I.P. lab 4.0, Becton Dickinson, Franklin Lakes, N.J.).
The animals were sacrificed after 3 or 8 days and the injured forebrain lesions were serially sectioned. Cell death within the damaged hemisphere was quantified by DNA fragmentation (TUNEL stain) to determine the degree of neuroprotection. Serial sections containing the entire lesion site and the TUNEL labeled peri-lesional zone were photographed, digitized, and the images used to quantify the number of positive cells by IP lab 4.0 Software (Becton Dickinson, Franklin Lakes, N.J.).
Mice were sacrificed 3 days post-TBI. The effect of treatment delay was determined by TUNEL staining.

EAE in SJL/J mice = test: PLP antigen-induced relapsing-remitting EAE, clinical score; type: in vivo
Method: JM-4 peptide rapidly reduces neurologic deficit in EAE mice. […] Mice first were immunized with a suboptimal dose of PLP antigen (100 μg) on day 0; the mice developed clinical deficits, and were allowed to recover for about 21 days. Recovered EAE mice received 7 days of treatment with either cyclic JM-4 peptide (i.v. 250 ng/kg) or PBS (i.v.) before receiving a second PLP antigen immunization (100 μg).

[4] = system: acutely symptomatic EAE animals; test: JM-4 peptide therapy on acutely symptomatic EAE animals; type: in vivo; conditions: 4 days of therapy
Source text: The effect of JM-4 peptide therapy on acutely symptomatic EAE animals was studied. Five sham-treated animals with EAE were compared to five EAE animals that had received 4 days of therapy with JM-4 peptide. The sham-treated animals were barely capable of moving their heads with marked four limb weakness. […] The JM-4 peptide treated animals have some neurologic residua (they have a waddling gait and their tails drag).

[5] = system: PLP antigen-induced symptomatic SJL/J EAE mice; test: Spinal cord pathology in EAE mice (mononuclear infiltration, SMI-32 staining); type: in vivo; conditions: treated 7 days
Method: Groups of PLP antigen-induced symptomatic SJL/J EAE mice were treated with either JM-4 peptide or PBS for 7 days, and spinal cords were removed for pathologic examination.
Monoclonal antibody (SMI-32) (Sternberger Monoclonal Antibodies, Lutherville, Md.) that reacts with a nonphosphorylated epitope in neurofilament H-was used. The reaction is masked when the epitope is phosphorylated. Briefly, frozen tissue sections (16 μm) were acetone-fixed for 10 minutes and air dried. Antigen retrieval was performed using 1× Target Unmasking Fluid (TUF) (Zymed Laboratories, San Francisco, Calif.). Slides were reacted with TUF at 95° C. for 10 minutes, then at room temperature (25° C.) for 10 minutes. SMI-32 primary antibody was diluted (1:5000) with 2% normal horse serum in PBS (1×) and reacted overnight at 4° C. Additional slides were processed without the primary antibody to provide an appropriate control. Slides then were washed twice with PBS (1×) for 3 minutes each wash, and reacted with a biotinylated anti-mouse antibody (Vector Laboratories, Burlingame, Calif.). The slides were washed twice (PBS (1×), 3 minutes each wash), reacted with an avidin-biotin/horseradish peroxidase complex (Vector Laboratories, Burlingame, Calif.) for 30 minutes at room temperature, and washed (PBS (1×), 3 minutes). Slides were visualized with Tyramide signal amplification/Cyanine-3 dye (Perkin Elmer, Waltham, Mass.) at 1:200 dilution in amplification buffer (Perkin Elmer, Waltham, Mass.). Slides then were mounted in glycerol and examined by fluorescence microscopy.
Acute axonal injury in spinal long tract was assessed by SMI-32 staining for nonphosphorylated neurofilaments (FIG. 3, black DAB staining, bottom 2 panels).

[6] = system: brain injured mice (controlled cortical impact); test: Summed area containing TUNEL positive cells within the lesioned hemisphere; type: in vivo, C57BL/6 mice; conditions: 3 days post-injury
Method: The effect of JM-4 peptide therapy on the summed area containing TUNEL positive cells within the lesioned hemisphere was evaluated 3 days post-injury. In this experiment, the same TUNEL stained sections (from Example 5) used to quantify the number of TUNEL positive cells were used to quantify the total area containing dying cells within the injured hemisphere.

TBI mice = test: Simple Neuroassessment of Asymmetric Impairment (SNAP) after traumatic brain injury; type: in vivo, C57BL/6 mice; conditions: 10 days post-injury, versus vehicle treated TBI mice
Method: SNAP is a scoring system, based on six tests, developed and validated to assess neurological deficits induced in a mouse model of traumatic brain injury. Mice are evaluated to assess neurological parameters for: (1) interaction with a handler, (2) cage grasp, (3) visual placing, (4) pacing/circling, (5) posture and head tilt, and (6) the baton test. The results from each of the six tests are summed to derive the overall SNAP score. SNAP scores are high when asymmetric deficits are apparent; thus, a neurologically intact animal would be expected to have a SNAP score of “0.” SNAP allows for ambiguous results (for example, a score of ‘1’) and test scores of 2 to 5 are assigned when asymmetric deficits were apparent. In addition, a range is allowed when the deficit appears to span more than one definition for a test score; ranges then are averaged to derive the test score (for example, a range of 2 to 3 would be scored as 2.5 for that test). […]
An uninjured mouse would ambulate in a random pattern (for example, turning either to the right or turning to the left when facing a corner). An injured mouse was expected to ambulate in a consistent pattern (for example, consistently turn toward one direction, and not be readily coaxed in the opposite direction). […]
The effect of JM-4 peptide therapy on neurologic deficits (SNAP scores) was evaluated 10 days post-injury by blinded observers.

## Epoetin Alfa [rhEPO, reference compound]
[1]
  effect on hematocrit: increased markedly within one week
[2]; SJL/J mice treated with rhEPO
  clinical signs of toxicity: developed red-blue ears and tails within 5 to 6 days, typically leading to death
[3]
  number of dying (TUNEL positive) cells: dramatically reduced

## GCAEHCSLNENITVPDTKV (also: cyclic, mode of cyclisation not given here) [JM-4]
[1]
  effect on hematocrit: no effect on hematocrit
  increase in red blood cell mass: not associated with any increase in red blood cell mass
[2]; PLP EAE mice, JM-4 therapy i.v. 250 ng/kg
  signs of toxicity: nor were any signs of toxicity observed
[2]; small group treated for 7 days
  blood chemistries: remained unaltered
EAE in SJL/J mice; after 7 days i.v. 250 ng/kg, versus sham, p<0.05
  clinical signs in response to the second PLP immunization: less severe clinical signs at a later time
EAE in SJL/J mice; after discontinuation of all therapy for 30 days, p<0.001
  disease severity in long term follow-up: much milder disease
EAE in SJL/J mice; recovered EAE mice, 7 days i.v. 250 ng/kg, p<0.05
  clinical score versus sham treated (saline): Marked clinical improvement
EAE in SJL/J mice; versus PBS sham treated animals
  clinical score after a second seven-day treatment course: Clinical improvement again was observed
[4]
  neurologic state versus sham-treated animals: mobile and markedly improved
[5]; versus PBS
  vacuolar changes: fewer vacuolar changes
  white matter mononuclear infiltration: marked reduction
[5]; versus sham
  injured SMI-32 positive axons: far fewer injured axons
[6]
  lesional area containing TUNEL positive cells: much reduced
[6]; versus PBS, p<0.001
  reduction of lesioned volume (area): greater than 50%
TBI mice
  neurologic deficits (composite SNAP score): significant improvement in neurologic deficits
[3]; 0.1 μg i.p. daily for 72 hours
  cell death judged by TUNEL positivity: failed to significantly block cell death
[3]; 1 μg i.p. daily for 72 hours
  cell death judged by TUNEL positivity: failed to significantly block cell death
[3]; 10 μg i.p., 3 days, FIG. 5A
  reduction of neural cell death (TUNEL): ~70%
[3]; 10 μg i.p., first treatment 15 minutes post-injury
  TUNEL positive dying cells versus sham: statistically significant neuroprotective effect
[3]; 10 μg i.p., first treatment 3 hours post-injury
  TUNEL positive dying cells versus sham: equally effective
[3]; 10 μg i.p., first treatment 9 hours post-injury
  TUNEL positive dying cells versus sham: equally effective
[3]; 10 μg i.p., treatment delayed 24 hours
  TUNEL positive dying cells versus sham: Very little treatment effect
[3]; 10 micrograms i.p. daily for 72 hours, p=0.005
  cell death judged by TUNEL positivity: significant protected against cell death
[3]; 50 micrograms i.p. daily for 72 hours, p=0.005
  cell death judged by TUNEL positivity: significant protected against cell death
[3]; 100 micrograms i.p. daily for 72 hours, p=0.005
  cell death judged by TUNEL positivity: significant protected against cell death
[3]; 8 days, FIG. 5B
  neuroprotection by TUNEL: neuroprotective
[3]; JM-4 10 μg i.p. versus EPO 5000 U/kg i.p.
  blocking cell death compared with whole molecule EPO: at least as effective as using whole molecule EPO
[3]; PO by gavage, 100 micrograms daily, 3 hours after injury, p=0.01
  cell death (TUNEL-positive cells): effective blocking cell death
[3]; following severe head trauma
  therapeutic window: at least 9 hours
[3]
  number of dying (TUNEL positive) cells: dramatically reduced
